Earlier results, collected in US7091182B2, “Method for assisting in differential diagnosis and treatment of autistic syndromes” (Repligen Corporation, priority 1997, dated 2006).

System: autistic patients
Conditions: cited from earlier work

In the case of `O=C1CC[C@@]2(O)[C@H]3Cc4ccc(O)c5c4[C@@]2(CCN3CC2CC2)[C@H]1O5` [naltrexone], the social behavior (double-blinded studies) is listed as “failed to produce significant changes” and the positive response (open trial in autistic children) is listed as 8 to 10 children were judged to show a positive response.
